Experimental data published in US6423692B2 (priority 1997, dated 2002).

Experiments:
9L-Neo tumors [1] = experiment: Survival of rats with intracerebral tumors; settings: intracerebral 9L-Neo tumors, ara-C 200 mg/kg; P<0.02
Method: 9L-Neo or 9L-dCK cells (2×10^4) were stereotaxically injected into right caudate nucleus of the brain.
In a second experiment, intracerebral tumors were established and rat survival was measured. Secondary to restricted intracranial volume, the survival of rats in this model represents a very reproducible parameter for determining the growth of transplanted tumors or tumor cell lines in vivo.
(§4) Implantation of intracerebral tumors. 9L-Neo and 9L-dCK cells were stereotaxically implanted into the right caudate nucleus of Fischer 344 rats using a modification of the method of Kobayashi [Kobayashi, N. et al. J. Neurosurg. […] In brief, male Fischer 344 rats (150-175 g) were anesthetized and placed in a small animal stereotaxic frame (Kopf Instruments). Tumor cells (2×10^4/10 μl) were injected with a 701 Hamilton syringe over 30 s to a depth of 4.5 mm, 1.3 mm posterior and 4 mm to the right of the bregma. […] Statistical significance of survival between different groups was assessed using log rank analysis of Kaplan Meier survival curves.

9L-Neo cells [2] = experiment: cells; assay type: cell-based; settings: Rattus norvegicus, 120 h, read-out: Cytotoxicity, cell viability
Method: Surviving cells were then counted 3 days later. Data represent means+s.e.m. […] Data represent the means +s.e.m. (bars) of five separate experiments.
In order to determine whether the dCK/ara-C-mediated bystander effect is dependent on direct cell-to-cell contact, 9L-Neo cells were plated on the bottom of a microliter transwell either directly with 9L-dCK cells or separated from the 9L-dCK cells by a 3-μm porous membrane. Significant cytotoxicity (38%+2% of control) was also seen in the 9L-Neo cells that were directly mixed in the bottom compartment with the 9L-dCK cells, compared with minimal cytotoxicity (81% of control) when the 9L-Neo cells were separated from the 9L-dCK cells by the membrane (FIG. 3b). The difference in cytotoxicity between cell-to-cell and membrane separated cell killing was statistically significant; P<0.01.

intracerebral 9L glioma = assay type: in vivo, Fischer 344 rats
Method: 9L-Neo or 9L-dCK cells (2×10^4) were injected into right caudate nucleus of the brain. Four days later, viral vehicle or 2×10^8 PFU of recombinant adenoviruses were injected into the tumors stereotaxically using the same route of previous 9L inoculation (V).
Four days later, viral vehicle, or 2×10^8 PFU (plaque-forming units) of either the Ad.CMVβgal or Ad.CMVdCK vectors were stereotactically injected into the tumors.
as §4

9L-Neo tumors [3] = experiment: Growth of intradermal tumors in syngeneic rat; assay type: in vivo, Fischer 344 rats
Method: Implantation of intradermal tumors. […] Tumor volume was calculated by multiplying the values of three perpendicular diameters. Statistical analysis was performed using an unpaired, two-tailed, Student's t-test.
Treatment of animals. […] Oncol.

[4] = tested on: 9L cells transduced by Ad.CMVβgal; experiment: Cytotoxic assay after adenoviral transduction; assay type: cell-based; settings: Rattus norvegicus; Ad.CMVβgal at different MOIs, 48 h after transduction, 24 hours ara-C
Method: (§1) FIGS. 6A and 6B show in vitro sensitivity to ara-C following transduction with dCK-expressing or control virus. 9L cells (2×10^3) were infected as follows: (FIG. 6A) Ad.CMVβgal at MOI 0 (●), 50 (▪), 500 ( ? ); and (FIG. 6B) Ad.CMVdCK at MOI 0 (◯), 50 (□) and 500 ( ? ). […] Cytotoxicity was determined by staining with methylene blue. […] The difference in cell killing was highly statistically significant for cells treated with Ad.CMVdCK at an MOI of 500 (P<0.00 1).
(§2) Cytotoxic assays were performed to determine whether 9L transduction by Ad.CMVdCK confers ara-C sensitivity. Forty-eight hours after transduction, 9L cells were exposed to various concentrations of ara-C for 24 hours. Forty-eight hours later, cells were assayed for cytotoxic effects.

[5] = tested on: 9L cells transduced by Ad.CMVdCK; experiment: Cytotoxic assay after adenoviral transduction; assay type: cell-based; settings: Rattus norvegicus, 24 h
Method: as §1, §2

9L-Neo cells [6] = experiment: Incorporation of ara-C into DNA; assay type: cell-based, rat; settings: one million cells
Method: (§3) Three and 6 h later, labeled cells were harvested, and digested by the addition of 2.5 mg proteinase-K (Boehringer-Mannheim, Indianapolis, Ind.) in 2 ml of 10 mM Tris (pH 7.4), 1 mM EDTA, and 0.5% SDS. Subsequent purification was accomplished by phenol extraction. The nucleic acids were precipitated, centrifuged, treated with RNase A and then assayed for radioactivity [Major, P. D., et al., Proc. Natl. Acad. Sci. USA 78:3235-3239 (1981)].

9L-WT cells = experiment: Incorporation of ara-C into DNA; assay type: cell-based, rat; settings: one million cells
Method: as §3

Q: Which results are given for Nc1ccn([C@@H]2O[C@H](CO)[C@@H](O)[C@@H]2O)c(=O)n1 [ara-C, 1-β-D-arabinofuranosyl-cytosine]?
A: Prolongation of median survival compared with PBS-treated animals (9L-Neo tumors [1]): 8 days; viability at 0.2 µM (9L-Neo cells [2]): 38%; Survival of animals treated with Ad.CMVdCK and ara-C (intracerebral 9L glioma; 2×10^8 PFU Ad.CMVdCK intratumoral, versus viral vehicle or Ad.CMVβgal and ara-C, P<0.0005): survived much longer; Survival of vehicle and Ad.CMVβgal injected animals treated with ara-C (intracerebral 9L glioma; versus PBS-treated animals, P<0.02): longer than that seen in the PBS-treated animals; Tumor size (9L-Neo tumors [3]; intradermal 9L-Neo tumors, ara-C 200 mg/kg s.c. every 8 h for 2 days, two courses): 9556+2272 mm^3; Growth of 9L-Neo tumors, ara-C versus PBS (9L-Neo tumors [3]; intradermal, ara-C 200 mg/kg): no significant difference in the growth; IC50 [4]: ~300 nM; IC50 ([5]; Ad.CMVdCK MOI 0, 24 hours ara-C): 300 nM; IC50 ([5]; Ad.CMVdCK MOI 50, 24 hours ara-C): 190 nM; IC50 ([5]; Ad.CMVdCK MOI 500, 24 hours ara-C, P<0.001): 80 nM; Incorporation of ara-C into DNA (9L-Neo cells [6]; 3 hours, 10^−7 M [3H]ara-C): 0.502 ± 0.198 pmol; Incorporation of ara-C into DNA (9L-Neo cells [6]; 3 hours, 10^−8 M [3H]ara-C): 0.067 ± 0.007 pmol; Incorporation of ara-C into DNA (9L-Neo cells [6]; 6 hours, 10^−7 M [3H]ara-C): 1.926 ± 0.259 pmol; Incorporation of ara-C into DNA (9L-Neo cells [6]; 6 hours, 10^−8 M [3H]ara-C): 0.403 ± 0.101 pmol; Incorporation of ara-C into DNA (9L-WT cells; 3 hours, 10^−7 M [3H]ara-C): 0.359 ± 0.061 pmol; Incorporation of ara-C into DNA (9L-WT cells; 3 hours, 10^−8 M [3H]ara-C): 0.054 ± 0.001 pmol; Incorporation of ara-C into DNA (9L-WT cells; 6 hours, 10^−7 M [3H]ara-C): 1.905 ± 0.652 pmol; Incorporation of ara-C into DNA (9L-WT cells; 6 hours, 10^−8 M [3H]ara-C): 0.305 ± 0.094 pmol
